Where two headings read alike, the source gives them in different places. *1 amine or outer side, *2 acyl side, *3 side chain or, on linkers, in order; H or OH if unused. Where a SMILES comes first, the peptide text is derived from it. Bridges are numbered along the chain shown (N, C = ends). [ ]: non-standard residue; d: D form. The star is where a group is joined. Orn(4R-OH,5R-OCH2CH2NMe3+) = C[N+](C)(C)CCO[C@@H](N[*:3])[C@H](O)C[C@H](N[*:1])C(=O)[*:2]; pTerphenylCO(4''-OnC5H11) = CCCCCOc1ccc(-c2ccc(-c3ccc(C(=O)*)cc3)cc2)cc1; hTyr(3S-OH,4S-OH) = N[C@H](C(=O)O)[C@H](O)[C@@H](O)c1ccc(O)cc1; Pro(3S-OH,4S-Me) = C[C@H]1CN[C@H](C(=O)O)[C@H]1O; Hyp = O=C(O)[C@@H]1C[C@@H](O)CN1
How the values were obtained:
[1] = test system: Candida parapsilosis ATCC 22019; assay: CLSI broth microdilution (M27-A3) MIC; format: cell-based; details: Lodderomyces parapsilosis, ATCC22019, 50% reduction in growth
Protocol: (§1) All yeast and mold isolates were obtained from the American Type Culture Collection (ATCC). Isolates were plated on an agar medium to verify purity, and single colonies were picked. Aspergillus isolates were resubcultured on potato dextrose slants and incubated for 7 days at 35°C. Candida isolates were streaked on SDA plates and incubated for 24 h at 35°C. RPMI 1640 medium (HyClone Laboratories, Logan, UT) and the inoculum for each organism were prepared according to Clinical and Laboratory Standards Institute (CLSI) guidelines ([27][–][29]). Stock solutions for all test articles were prepared in 100% dimethyl sulfoxide (DMSO). Susceptibility testing was performed using CLSI broth microdilution methods for Candida (M27-A3) and Aspergillus (M38-A2). Amphotericin B was tested at a range of 0.06 to 64 μg/ml; all other antifungal agents were tested at 0.015 to 16 μg/ml. Plates were incubated at 35°C and were read from the bottom using a plate viewer after 24 and 48 h for Candida and after 48 h for Aspergillus. MIC values are reported as the lowest drug concentration to yield a 50% reduction in the growth of Candida species tested compared to the control well. Minimum effective concentration (MEC) values are reported as the lowest drug concentration to yield the stunted hyphal growth of Aspergillus species tested compared to that of the control well.

[2] = test system: Candida glabrata ATCC 90030; assay: CLSI broth microdilution (M27-A3) MIC; format: cell-based; details: Nakaseomyces glabratus, ATCC90030, 50% reduction in growth, read-out: MIC
Protocol: as §1

[3] = test system: Candida tropicalis ATCC 90874; assay: CLSI broth microdilution (M27-A3) MIC; format: cell-based; details: 50% reduction in growth
Protocol: as §1

[4] = test system: Candida guilliermondii ATCC 34134; assay: CLSI broth microdilution (M27-A3) MIC; format: cell-based; details: Meyerozyma guilliermondii, ATCC34134, 50% reduction in growth
Protocol: as §1

[5] = test system: Candida krusei ATCC 14243; assay: CLSI broth microdilution (M27-A3) MIC; format: cell-based; details: Pichia kudriavzevii, ATCC14243, 50% reduction in growth
Protocol: as §1

[6] = test system: Candida albicans ATCC 90028; assay: CLSI broth microdilution (M27-A3) MIC; format: cell-based; details: 50% reduction in growth
Protocol: as §1

[7] = test system: Candida lusitaniae ATCC 34134; assay: CLSI broth microdilution (M27-A3) MIC; format: cell-based; details: Clavispora lusitaniae, ATCC34134, 50% reduction in growth, read-out: MIC
Protocol: as §1

[8] = test system: Aspergillus spp.; assay: CLSI broth microdilution (M38-A2) MEC, whole panel; format: cell-based; details: 48 h, summary of Table 3
Protocol: as §1

[9] = test system: Candida albicans R303; assay: mouse model of disseminated candidiasis, fungal burden in kidneys; format: in vivo; details: kidneys at 24 h
Protocol: Candida albicans R303 was grown on Sabouraud dextrose agar (SDA) plates for 24 h at 35°C. Colonies were transferred to phosphate-buffered saline (PBS) and diluted to 3.8 × 10^5 CFU/ml. Female CD-1 mice (Charles River Laboratories, Portage, MI) were rendered neutropenic via injection with cyclophosphamide (150 mg/kg) 5 days and 2 days prior to inoculation. Each animal was infected by injecting 0.1 ml of inoculum into the tail vein. In the treatment groups, animals received 0.5, 1.5, or 4.5 mg/kg of test article 2 h after inoculation. Two groups of untreated, infected controls were used to evaluate fungal burden: at 2 h when test articles were administered in the treatment groups and at 24 h when the treatment groups were sacrificed. Kidneys were harvested at 2 h in one untreated control group and at 24 h in all other groups. The kidneys were homogenized in 2 ml of sterile phosphate-buffered saline, and 0.1-ml aliquots were spread on SDA plates and incubated at 35°C overnight. Fungal burden was determined based on the log10 C. albicans CFU counts from paired kidneys. Data were analyzed using a one-way analysis of variance (ANOVA) and the Dunnett multiple comparisons test comparing the test articles to the infected control group (GraphPad InStat version 3.1; GraphPad Software, San Diego, CA).

[10] = single-dose pharmacokinetics in beagle dogs; details: male, dog, in vivo, iv, beagle dogs, single i.v. 1.4 mg/kg, 10-min slow bolus
Protocol: Four male, nonnaive beagle dogs received a single i.v. infusion (1.4 mg/kg) of test article over 10 min via a catheter placed in the cephalic vein. Blood draws (1.0 ml) were taken at 0.083, 0.33, 0.75, 1.5, 4.5, 12, 24, and 48 h. An additional blood draw at 72 h was obtained for CD101. Blood draws were taken from the jugular vein and were collected into K3 EDTA tubes. Following blood collection, the samples were immediately inverted several times and were held on wet ice pending centrifugation. The samples were centrifuged within ∼30 min of collection under refrigeration (∼5°C for ∼10 min at ∼2,000 g) to obtain plasma. The plasma samples were frozen immediately on dry ice after separation and were stored at approximately −70°C until analysis. Levels of test article in the plasma samples were measured by quantitative liquid chromatography-tandem mass spectrometry (LC-MS/MS) analysis compared to a calibration curve and an internal standard. Pharmacokinetic parameters were calculated from the plasma concentration-time data using standard noncompartmental methods and utilizing WinNonlin analysis software.

[11] = test system: Aspergillus clavatus ATCC 10058; assay: CLSI broth microdilution (M38-A2) MEC/MIC; format: cell-based; details: read at 68 h, stunted hyphal growth
Protocol: as §1, with “Plates were incubated at 35°C and were read from the bottom using a plate viewer after 24 and 48 h for Candida and after 48 h for Aspergillus.” left out

[12] = test system: Aspergillus fumigatus ATCC MYA-3626; assay: CLSI broth microdilution (M38-A2) MEC/MIC; format: cell-based; details: 48 h, stunted hyphal growth
Protocol: as §1

[13] = test system: Aspergillus niger ATCC 16888; assay: CLSI broth microdilution (M38-A2) MEC/MIC; format: cell-based; details: 48 h, stunted hyphal growth
Protocol: as §1

[14] = test system: Aspergillus flavus ATCC 22546; assay: CLSI broth microdilution (M38-A2) MEC/MIC; format: cell-based; details: 48 h, stunted hyphal growth
Protocol: as §1

[15] = test system: Aspergillus candidus ATCC 13686; assay: CLSI broth microdilution (M38-A2) MEC/MIC; format: cell-based; details: 48 h, stunted hyphal growth
Protocol: as §1

[16] = test system: Aspergillus ochraceus ATCC 96919; assay: CLSI broth microdilution (M38-A2) MEC/MIC; format: cell-based; details: 48 h, stunted hyphal growth
Protocol: as §1

[17] = test system: Aspergillus fumigatus ATCC 204305; assay: CLSI broth microdilution (M38-A2) MEC/MIC; format: cell-based; details: 48 h, stunted hyphal growth
Protocol: as §1

[18] = humans, clinical trials ref 22; cited from earlier work

CCCCCOc1ccc(-c2ccc(-c3ccc(C(=O)N[C@H]4C[C@@H](O)[C@@H](OCC[N+](C)(C)C)NC(=O)[C@@H]5[C@@H](O)[C@@H](C)CN5C(=O)[C@H]([C@@H](C)O)NC(=O)[C@H]([C@H](O)[C@@H](O)c5ccc(O)cc5)NC(=O)[C@@H]5C[C@@H](O)CN5C(=O)[C@H]([C@@H](C)O)NC4=O)cc3)cc2)cc1 [CD101] ({pTerphenylCO(4''-OnC5H11)}-[Orn(4R-OH,5R-OCH2CH2NMe3+)]T[Hyp][hTyr(3S-OH,4S-OH)]T[Pro(3S-OH,4S-Me)]; lactam 1-C)
MIC ([1]; 24 h): 0.5 µg/mL
MIC ([1]; 48 h): 1 µg/mL
MIC ([2]; 24 h): 0.03 µg/mL
MIC ([2]; 48 h): 0.03 µg/mL
MIC ([3]; ATCC90874, 24 h): ≤ 0.015 µg/mL
MIC ([3]; ATCC90874, 48 h): ≤ 0.015 µg/mL
MIC ([4]; 24 h): 0.5 µg/mL
MIC ([4]; 48 h): 2 µg/mL
MIC ([5]; 24 h): 0.03 µg/mL
MIC ([5]; 48 h): 0.03 µg/mL
MIC ([6]; ATCC90028, 24 h): 0.03 µg/mL
MIC ([6]; ATCC90028, 48 h): 0.03 µg/mL
MIC ([7]; 24 h): 0.25 µg/mL
MIC ([7]; 48 h): 0.25 µg/mL
MEC values against all Aspergillus species tested [8]: below 0.03 μg/ml
reductions in fungal burden vs infected control (statistical significance) ([9]; neutropenic CD-1 mice, 0.5, 1.5 or 4.5 mg/kg 2 h after inoculation): statistically significant (P < 0.01) reductions in fungal burden at all doses
fungal burden relative to limit of detection ([9]; neutropenic CD-1 mice, 0.5, 1.5 or 4.5 mg/kg): below the limit of detection for at least one of the doses
clearance [10]: 0.317 mL/min/kg
Vd ([10]; read-out: V (volume of distribution)): 1.36 L/kg
half-life ([10]; read-out: t1/2 (converted)): 53.1 h
MEC [11]: 0.03 µg/mL
MEC [12]: ≤0.015 µg/mL
MEC [13]: ≤0.015 µg/mL
MEC [14]: ≤0.015 µg/mL
MEC [15]: ≤0.015 µg/mL
MEC [16]: 0.03 µg/mL
MEC [17]: ≤0.015 µg/mL
half-life in clinical trials [18]: > 80 h

Source: publication PMC5278707, “Structure-Activity Relationships of a Series of Echinocandins and the Discovery of CD101, a Highly Stable and Soluble Echinocandin with Distinctive Pharmacokinetic Properties” (Antimicrobial Agents and Chemotherapy, 2017)
